Measurements taken from patent publication US8350026B2, “VEGF-2 receptor and protein tyrosine kinase inhibitors and pharmaceutical use thereof” (Leo Pharma A/S, priority 2008, dated 2013).

Assays:
[1] = Metabolic stability in human liver microsomes (HLM); type: in vitro ADME; parameters: CLint scaled: dose or concentration left out as unconfirmed; settings: both sexes, pH 7.4; for CL/F at 0.5 μM: human liver microsomes 0.5 mg protein/mL, NADPH 1 mM, test compound 0.5 μM, 37° C., 30 minutes, read-out: HLM (apparent clearance)
Method: The metabolic stability is tested in human liver microsomes (In Vitro Technologies, pooled mixed sexes, 20 mg/mL); a subcellular fraction containing major drug-metabolizing phase I enzymes, including the cytochrome P450 (CYP) family and flavin monooxygenases (FMO). The apparent clearance (mL/min/kg) is calculated as a measurement of test compound elimination from the liver.
Procedure: A human microsome incubation mixture (0.5 mg microsomal protein/mL) in phosphate buffer (pH 7.4, 100 mM KH2PO4/10 mM MgCl2) is mixed with NADPH (1 mM). The mixture is pre-heated (7 min) to 37° C., test compound (0.5 μM) is added, and the mixture is incubated for 30 minutes. Incubations are run in duplicate and performed by a Tecan RSP. Samples are withdrawn at 0, 5, 10, 20, and 30 min and mixed with methanol containing internal standard to terminate all enzyme activity and precipitate proteins. […] Samples are analysed by LC-MS/MS.
Data analysis: The logarithm of the peak area ratios of test compound to internal standard versus incubation time is plotted in a graph. The rate constant (k) of test compound depletion is calculated from the linear part of the curve (Eq. 1) and the half-time (t1/2) is calculated from the slope (Eq. 2). Rate constant(k)(min^−1)=−slope Eq. 1 Half-time(t1/2)(min)=ln 2/k Eq. 2
Clint(mL/min/mg protein)=k/Protein concentration Eq. 3

[2] = target: T1, VEGFR-2 (KDR) (Homo sapiens, UniProt P35968); test: KDR Assay - HTRF KinEASE-TK (in vitro KDR inhibition); type: biochemical; settings: ATP 100 μM, 15 minutes at rt
T1 construct: purchased Millipore 14-630
T1 sequence (P35968 790-1356 limits assumed): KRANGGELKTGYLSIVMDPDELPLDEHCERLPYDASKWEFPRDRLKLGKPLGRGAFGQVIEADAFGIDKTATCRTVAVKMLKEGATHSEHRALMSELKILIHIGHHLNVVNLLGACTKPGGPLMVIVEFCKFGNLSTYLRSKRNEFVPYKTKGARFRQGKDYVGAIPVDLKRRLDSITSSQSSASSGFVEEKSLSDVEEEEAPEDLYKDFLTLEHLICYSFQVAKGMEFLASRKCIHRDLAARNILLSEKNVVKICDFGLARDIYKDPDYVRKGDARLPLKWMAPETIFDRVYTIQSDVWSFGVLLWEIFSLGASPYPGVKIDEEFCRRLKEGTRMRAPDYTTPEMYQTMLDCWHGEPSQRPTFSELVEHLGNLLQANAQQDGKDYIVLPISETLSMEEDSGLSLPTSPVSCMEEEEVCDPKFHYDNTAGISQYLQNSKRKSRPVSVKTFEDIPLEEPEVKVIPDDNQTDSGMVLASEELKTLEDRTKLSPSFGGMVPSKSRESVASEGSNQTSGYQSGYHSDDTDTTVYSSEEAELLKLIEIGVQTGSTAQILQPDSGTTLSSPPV
Method: KDR Assay—HTRF KinEASE-TK
The compounds to be tested were dissolved in DMSO at 10 mM, stored at −20° C. and protected from light. The maximum concentration of DMSO in the in vitro assay was 0.75%. Control samples received the same concentration of solvent as the samples treated with the test compounds.
For the kinase assays, the HTRF KinEase™-TK kit (CisBio (#62TKOPEJ) was used. All components in HTRF KinEase™-TK kit were handled according to suppliers description. Briefly, DMSO stock solution of compounds (100% DMSO) were prediluted to 6% DMSO in 50 mM Hepesbuffer+0.05% BSA (Sigma Aldrich (A3294)) before transferring 1 μl to a 384-well Proxyplate (Perkin Elmer (#6008289) at RT. Kinase Substrate (2 μL, CisBio) was added to Proxyplate with compound. Enzyme mix (5 μL, Millipore (14-630)) with ATP (100 μM, Sigma Aldrich (A7699)), MgCl2 (5 mM; Sigma Aldrich M1028) and SEB (50 nM, CisBio) was added to start the reaction. The plates were incubated for 15 minutes at rt. The assay was stopped by addition of Detection mix (4 μL, CisBio) and plates were sealed and spun for 1 min at 1000 rpm. The plates were incubated in darkness over night at rt. The plates were read on an Envision (Perkin Elmer) plate reader. Signal from two wave lengths (665 and 620 nm) upon excitation at 340 nm in accordance to manufactures instructions. Briefly, fluorescence was measured for 400 μs between flashes after a delay time of 400 μs. The background measured in the absence of enzyme was subtracted from all samples. The molar concentrations that inhibited 50% of the maximal enzymatic activity (IC50) were calculated using a four-parameter sigmoid curve fit model of the dose-response curve, based on the following equation: y=((a−d)/(1+(x/c)^b))+d; where a is the minimum value, d is the maximum value, c is the IC50 value and […].

[3] = human, human liver microsomes, HLM assay reference compounds, read-out: intrinsic clearance values of HLM assay reference compounds

Structure (SMILES) | CL/F at 0.5 μM [1] | IC50 [2] | CLint scaled at 0.5 μM [1, 3] | CLint scaled [1, 3]
CCC(CC)CCNC(=O)c1ccccc1NCc1ccnc(NC(=O)c2ccco2)c1 [Compound 109, Furan-2-carboxylic acid (4-{[2-(3-ethyl-pentylcarbamoyl)-phenylamino]-methyl}-pyridin-2-yl)-amide] | > 200 mL/min/kg | 53 nM | – | –
CC(=O)CC(c1ccccc1)c1c(O)c2ccccc2oc1=O (centres unmarked) [Warfarin, reference compound] | – | – | < 10 mL/min/kg | –
CCC(CC)CCNC(=O)c1ccccc1NCc1ccnc(NC(=O)c2cnco2)c1 [Compound 104, Oxazole-5-carboxylic acid (4-{[2-(3-ethyl-pentylcarbamoyl)-phenylamino]-methyl}-pyridin-2-yl)-amide] | 120 mL/min/kg | 15 nM | – | –
CCC(CC)CCNC(=O)c1ccccc1NCc1ccnc(NC(C)=O)c1 [Compound 103, 2-[(2-Acetylamino-pyridin-4-ylmethyl)-amino]-N-(3-ethyl-pentyl)-benzamide] | > 200 mL/min/kg | 19 nM | – | –
O=C(Nc1cc(CNc2ccccc2C(=O)NCCC2=CCCCC2)ccn1)c1ccco1 [Compound 108, Furan-2-carboxylic acid (4-{[2-(2-cyclohex-1-enyl-ethylcarbamoyl)-phenylamino]-methyl}-pyridin-2-yl)-amide] | > 200 mL/min/kg | 44 nM | – | –
CC(C)CCCNC(=O)c1ccccc1NCc1ccnc(NC(=O)c2ccco2)c1 [Compound 106, Furan-2-carboxylic acid (4-{[2-(4-methyl-pentylcarbamoyl)-phenylamino]-methyl}-pyridin-2-yl)-amide] | > 200 mL/min/kg | 17 nM | – | –
Cc1ncc2n1-c1ccc(Cl)cc1C(c1ccccc1F)=NC2 [Midazolam, reference compound] | – | – | – | > 200 mL/min/kg
O=C(Nc1cc(CNc2ccccc2C(=O)NCCC2CCCC2)ccn1)c1ccco1 [Compound 105, Furan-2-carboxylic acid (4-{[2-(2-cyclopentyl-ethylcarbamoyl)-phenylamino]-methyl}-pyridin-2-yl)-amide] | > 200 mL/min/kg | 43 nM | – | –
CC(C)(C)CCNC(=O)c1ccccc1NCc1ccnc(NC(=O)c2ccco2)c1 [Compound 107, Furan-2-carboxylic acid (4-{[2-(3,3-dimethyl-butylcarbamoyl)-phenylamino]-methyl}-pyridin-2-yl)-amide] | > 200 mL/min/kg | 39 nM | – | –
CC(=O)Nc1cc(CNc2ccccc2C(=O)NCCC2CCCC2)ccn1 [Compound 102, 2-[(2-Acetylamino-pyridin-4-ylmethyl)-amino]-N-(2-cyclopentyl-ethyl)-benzamide] | > 200 mL/min/kg | 8 nM | – | –
COC(=O)Nc1cc(CNc2ccccc2C(=O)NCCC(C)(C)C)ccn1 [Compound 101, (4-{[2-(3,3-Dimethyl-butylcarbamoyl)-phenylamino]-methyl}-pyridin-2-yl)-carbamic acid methyl ester] | 135 mL/min/kg | 11 nM | – | –
